Values quoted from earlier work, collected in patent publication US20020177624A1, “Acetate-lactate buffering vaginal gel and for method of making same and treating bacterial vaginosis” (priority 2001, published 2002).

Tested on: bacterial vaginosis
Conditions: oral administration

Cc1ncc([N+](=O)[O-])n1CCO [metronidazole]
success of treatment of bacterial vaginosis: often highly successful
